Data: paper PMC9287434, “Inhibition of NMDA receptors through a membrane-to-channel path” (Nature Communications, 2022)
Counter-ions that a name gives are not always drawn.

Assays:
GluN1/2A receptors [1] = target: T1, GluN1/2A receptors (Rattus norvegicus, UniProt P35439+Q00959); test: MCI protocol, whole-cell recording from GluN1/2A NMDAR-expressing tsA201 cells; format: cell-based
T1 construct: expressed in transfected cells; host or cells: tsA201 cells (HEK 293 variant)
Procedure: (§1) Wildtype or mutant GluN1/2A receptors were used for all tsA201 cell experiments. 12–24 h after plating, tsA201 cells were transiently co-transfected using FuGENE6 Transfection Reagent (Promega) with mammalian expression plasmids that contained cDNAs encoding enhanced green fluorescent protein (EGFP in pRK7) for identification of transfected cells, the rat GluN1-1a subunit (referred to as GluN1; GenBank X63255 in pcDNA3.1), and the rat GluN2A subunit (GenBank M91561 in pcDNA1). For some experiments cells were transfected with GluN1 and EGFP:pIRES:GluN2A (a generous gift from Dr. Kasper Hansen (Hansen, unpublished)), which was constructed by inserting EGFP in pIRES (Clontech) under transcriptional control of the CMV promoter, and rat GluN2A cDNA (GenBank D13211) after the IRES sequence. Voltage clamp recordings were performed on tsA201 cells 12–48 h after transfection.
(§2) Pipettes were pulled from borosilicate capillary tubing (Sutter Instruments) on a Flaming Brown P-97 microelectrode puller (Sutter Instruments) and polished with a heated filament to a resistance of 2–5 MΩ. Whole-cell recordings were made from cells expressing eGFP identified by epifluorescence illumination on an inverted Zeiss Axiovert microscope. Cells were held at a Vm of −65 mV (corrected for a liquid junction potential of −6 mV) unless otherwise indicated. Whole-cell currents were recorded using an Axopatch 200B patch-clamp amplifier (Molecular Devices). Series resistance was compensated 80–90% using the prediction and correction circuitry. […] NMDAR responses were activated by fast perfusion of 1 mM glutamate (tsA201 cells) or 100 μM NMDA (cultured neurons).
Solutions were delivered to cells using a ten-barrel fast perfusion system. […] If channel blocker remained in the extracellular solution after the 1-s wash, measurements of MCI could have been contaminated by inhibition due to traditional open channel block.
We averaged minima of IControl2/IControl1 and IControl1/IControl2 to control for any possible rundown or runup of NMDAR response. For pH jump experiments, to control also for possible delayed effects of the pH jump on NMDAR responses, the minimum IMCI/IControl value was measured using an additional set of experiments.

[2] = target: T2, GluN1/2A(M630W) receptors (Rattus norvegicus, UniProt P35439+Q00959, M630W); test: Traditional [memantine]-inhibition curve, GluN1/2A(M630W)
T2 sequence (Q00959 23-1464 M630W, other chains not shown): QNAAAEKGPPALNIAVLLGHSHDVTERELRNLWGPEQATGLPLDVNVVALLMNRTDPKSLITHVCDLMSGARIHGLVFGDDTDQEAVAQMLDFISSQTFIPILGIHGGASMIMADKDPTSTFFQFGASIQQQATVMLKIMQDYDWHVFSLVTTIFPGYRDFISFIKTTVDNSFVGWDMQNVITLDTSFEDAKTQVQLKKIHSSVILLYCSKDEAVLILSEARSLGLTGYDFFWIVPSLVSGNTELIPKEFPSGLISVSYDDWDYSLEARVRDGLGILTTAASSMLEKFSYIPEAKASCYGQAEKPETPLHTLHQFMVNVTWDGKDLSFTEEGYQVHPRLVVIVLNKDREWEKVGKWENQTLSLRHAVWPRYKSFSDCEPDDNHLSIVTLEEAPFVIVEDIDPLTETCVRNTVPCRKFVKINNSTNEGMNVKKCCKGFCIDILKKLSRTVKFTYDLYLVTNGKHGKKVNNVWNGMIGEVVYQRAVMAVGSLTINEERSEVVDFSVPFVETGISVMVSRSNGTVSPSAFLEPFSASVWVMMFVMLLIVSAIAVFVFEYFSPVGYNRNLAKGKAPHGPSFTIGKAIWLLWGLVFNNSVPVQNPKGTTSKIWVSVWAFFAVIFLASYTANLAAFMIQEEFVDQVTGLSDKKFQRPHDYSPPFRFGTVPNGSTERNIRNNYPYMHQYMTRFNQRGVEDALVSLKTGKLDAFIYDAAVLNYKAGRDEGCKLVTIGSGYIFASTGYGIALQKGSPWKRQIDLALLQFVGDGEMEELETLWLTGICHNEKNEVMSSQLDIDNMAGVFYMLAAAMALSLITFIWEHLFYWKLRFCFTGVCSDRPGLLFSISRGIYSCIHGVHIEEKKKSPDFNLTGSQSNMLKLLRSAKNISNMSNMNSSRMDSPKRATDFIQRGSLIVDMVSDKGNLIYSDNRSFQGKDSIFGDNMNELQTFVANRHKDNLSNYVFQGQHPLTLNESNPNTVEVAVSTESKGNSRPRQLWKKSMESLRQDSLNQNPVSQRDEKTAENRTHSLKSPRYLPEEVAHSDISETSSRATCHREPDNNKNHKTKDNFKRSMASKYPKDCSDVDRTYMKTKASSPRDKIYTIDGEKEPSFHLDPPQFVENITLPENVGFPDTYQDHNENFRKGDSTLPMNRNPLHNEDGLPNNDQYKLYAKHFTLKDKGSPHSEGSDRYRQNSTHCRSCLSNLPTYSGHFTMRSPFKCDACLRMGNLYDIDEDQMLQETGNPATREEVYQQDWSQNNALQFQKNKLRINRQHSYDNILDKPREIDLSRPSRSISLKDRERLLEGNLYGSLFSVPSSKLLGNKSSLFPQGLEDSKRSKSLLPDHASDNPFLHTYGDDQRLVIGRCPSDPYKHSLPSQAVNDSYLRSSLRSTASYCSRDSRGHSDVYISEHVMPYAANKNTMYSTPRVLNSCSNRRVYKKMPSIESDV

[3] = design: method as in PMID 7086822; details: measured pKa; cited from earlier work
[4] = target: T3, GluN1/2A(M630A) receptors (Rattus norvegicus, UniProt P35439+Q00959, M630A); test: MCI protocol, GluN1/2A(M630A)
T3 sequence (Q00959 23-1464 M630A, other chains not shown): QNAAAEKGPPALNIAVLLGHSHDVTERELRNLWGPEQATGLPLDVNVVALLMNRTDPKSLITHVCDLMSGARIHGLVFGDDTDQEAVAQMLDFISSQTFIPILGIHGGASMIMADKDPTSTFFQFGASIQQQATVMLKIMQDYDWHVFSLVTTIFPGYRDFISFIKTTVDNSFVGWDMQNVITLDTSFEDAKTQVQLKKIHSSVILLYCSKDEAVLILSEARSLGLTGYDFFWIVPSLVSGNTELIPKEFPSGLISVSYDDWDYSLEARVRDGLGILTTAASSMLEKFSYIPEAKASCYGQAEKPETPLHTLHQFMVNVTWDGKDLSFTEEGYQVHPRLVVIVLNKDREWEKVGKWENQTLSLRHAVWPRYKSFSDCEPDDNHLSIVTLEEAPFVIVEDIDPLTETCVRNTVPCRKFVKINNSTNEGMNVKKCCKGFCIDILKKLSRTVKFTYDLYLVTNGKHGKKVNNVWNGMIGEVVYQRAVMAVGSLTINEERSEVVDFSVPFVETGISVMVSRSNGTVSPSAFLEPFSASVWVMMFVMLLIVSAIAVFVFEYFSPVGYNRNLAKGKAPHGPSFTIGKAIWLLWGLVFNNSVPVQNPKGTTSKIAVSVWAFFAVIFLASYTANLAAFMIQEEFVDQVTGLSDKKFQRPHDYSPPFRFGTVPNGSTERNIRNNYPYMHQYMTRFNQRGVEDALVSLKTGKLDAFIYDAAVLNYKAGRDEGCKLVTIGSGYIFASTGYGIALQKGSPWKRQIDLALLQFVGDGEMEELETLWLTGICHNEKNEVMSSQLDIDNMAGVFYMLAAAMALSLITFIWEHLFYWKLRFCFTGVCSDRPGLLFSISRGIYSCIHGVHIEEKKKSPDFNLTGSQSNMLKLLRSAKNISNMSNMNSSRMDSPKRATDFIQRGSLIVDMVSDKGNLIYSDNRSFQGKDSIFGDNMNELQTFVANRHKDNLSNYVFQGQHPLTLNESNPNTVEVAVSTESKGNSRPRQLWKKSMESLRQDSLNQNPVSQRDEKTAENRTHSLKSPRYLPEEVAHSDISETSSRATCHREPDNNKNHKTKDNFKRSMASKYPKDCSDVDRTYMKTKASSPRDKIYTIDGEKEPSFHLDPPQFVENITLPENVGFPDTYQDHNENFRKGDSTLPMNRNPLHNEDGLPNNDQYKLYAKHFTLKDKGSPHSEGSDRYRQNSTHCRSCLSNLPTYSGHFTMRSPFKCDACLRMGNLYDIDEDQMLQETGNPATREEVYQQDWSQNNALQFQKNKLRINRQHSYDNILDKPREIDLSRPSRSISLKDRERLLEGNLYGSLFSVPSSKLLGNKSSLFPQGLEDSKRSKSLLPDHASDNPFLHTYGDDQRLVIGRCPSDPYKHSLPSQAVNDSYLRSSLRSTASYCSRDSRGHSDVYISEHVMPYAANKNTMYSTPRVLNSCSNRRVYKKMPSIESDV

[5] = target: T2, GluN1/2A(M630W) receptors; test: MCI protocol, GluN1/2A(M630W)
NMDAR = details: 30 μM intracellular memantine; cited from earlier work
[6] = system: native NMDARs in cultured neurons; details: cited from earlier work
[7] = cited from earlier work
[8] = pKa, charged/uncharged fraction in aqueous solution; format: physicochemical
Text: [36]). […] We tested this prediction by measuring the dependence of MCI on extracellular pH. A similar approach was used to study membrane partitioning of local anesthetics during VGSC inhibition[23],[24],[27].

[9] = target: T3, GluN1/2A(M630A) receptors; test: Traditional [memantine]-inhibition curve, GluN1/2A(M630A)
NMDARs = details: cited from earlier work
GluN1/2A receptors [10] = target: T1, GluN1/2A receptors; test: Traditional channel block (coapplication of drug and agonists), tsA201 cells; format: cell-based
Procedure: as §1, §2

[11] = system: native NMDARs in cultured neurons; test: MCI protocol, neurons in primary culture; format: cell-based, rat; details: 1 μM MK-801, pH 7.2, cultured neurons, 100 μM NMDA
cultured neurons = system: cultured neurons; design: method as in PMID 8570022; details: cultured neurons held at −70 mV; read-out: IC50 (previous value); cited from earlier work
[12] = constant pH 9.0, 1 mM TMM, 165 μM DMM
[13] = pH 7.2, WT, −65 mV, read-out: traditional IC50

T1 sequence (Q00959 23-1464, other chains not shown): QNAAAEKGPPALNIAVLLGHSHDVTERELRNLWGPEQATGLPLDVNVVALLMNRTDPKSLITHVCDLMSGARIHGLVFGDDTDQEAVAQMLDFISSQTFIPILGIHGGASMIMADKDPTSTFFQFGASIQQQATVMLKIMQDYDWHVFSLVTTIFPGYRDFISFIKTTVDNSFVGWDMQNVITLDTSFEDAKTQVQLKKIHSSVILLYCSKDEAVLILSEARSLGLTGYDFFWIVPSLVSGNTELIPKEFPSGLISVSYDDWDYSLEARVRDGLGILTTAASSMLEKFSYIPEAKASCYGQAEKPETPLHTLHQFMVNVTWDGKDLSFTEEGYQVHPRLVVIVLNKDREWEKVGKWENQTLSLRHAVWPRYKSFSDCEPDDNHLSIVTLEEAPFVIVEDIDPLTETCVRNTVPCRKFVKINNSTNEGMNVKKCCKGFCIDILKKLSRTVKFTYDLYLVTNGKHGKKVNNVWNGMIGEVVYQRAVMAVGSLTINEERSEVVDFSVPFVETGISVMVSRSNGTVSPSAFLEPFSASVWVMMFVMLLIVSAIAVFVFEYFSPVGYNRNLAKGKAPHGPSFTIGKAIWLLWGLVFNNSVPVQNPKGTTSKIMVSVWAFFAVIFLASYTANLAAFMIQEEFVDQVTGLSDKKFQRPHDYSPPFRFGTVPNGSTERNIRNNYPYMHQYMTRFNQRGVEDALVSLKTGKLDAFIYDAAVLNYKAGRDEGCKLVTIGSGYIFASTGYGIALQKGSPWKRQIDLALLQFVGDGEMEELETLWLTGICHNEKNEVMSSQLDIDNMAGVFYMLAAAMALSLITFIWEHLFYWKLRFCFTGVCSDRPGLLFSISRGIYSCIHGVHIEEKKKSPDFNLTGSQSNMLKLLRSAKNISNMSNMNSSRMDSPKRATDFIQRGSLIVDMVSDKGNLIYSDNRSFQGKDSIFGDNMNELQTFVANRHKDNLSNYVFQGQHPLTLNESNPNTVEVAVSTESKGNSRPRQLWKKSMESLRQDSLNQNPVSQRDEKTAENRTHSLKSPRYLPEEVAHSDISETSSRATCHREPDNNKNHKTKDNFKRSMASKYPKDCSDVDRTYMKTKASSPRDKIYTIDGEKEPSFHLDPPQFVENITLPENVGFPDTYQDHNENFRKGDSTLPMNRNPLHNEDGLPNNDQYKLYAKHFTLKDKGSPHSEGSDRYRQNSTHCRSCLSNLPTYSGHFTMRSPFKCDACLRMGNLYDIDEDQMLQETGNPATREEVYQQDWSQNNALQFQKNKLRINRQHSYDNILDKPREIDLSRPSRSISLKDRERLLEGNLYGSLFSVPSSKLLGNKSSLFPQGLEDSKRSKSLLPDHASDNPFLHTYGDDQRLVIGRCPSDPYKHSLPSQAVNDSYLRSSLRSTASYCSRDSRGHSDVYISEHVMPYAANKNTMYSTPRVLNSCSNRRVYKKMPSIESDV

In the case of `CC12CC3CC1(C)C1(C)CC3(CN)CC21C` [RL-208], the “Min IMCI/IControl” value (GluN1/2A receptors [1]; 20 μM RL-208, pH 7.2) is reported as 0.275 ± 0.017 and the “MCI exhibited (in words)” value (GluN1/2A receptors [1]; pH 7.2) is reported as “displayed MCI”.

For `CC12CC3CC(C)(C1)CC(N)(C3)C2` [memantine], the IC50 [2] is listed as 1.49 ± 0.2 µM, the pKa [3] is listed as 10.4 and the IC50 [4] is listed as 51.4 ± 5.1 µM. The IC50 [5] was 148 ± 2.8 µM, the “time constant of current decay following the preinhibition peak” value (GluN1/2A receptors [1]; 100 μM memantine, pH 7.2, from point-by-point ratios) was 46.4 ± 4.1 ms and the “time constant of MCI onset” value (GluN1/2A receptors [1]; 100 μM memantine, pH 7.2, likely faster than decay time constant) was < 46.4 ms. For the same compound, the IC50 (GluN1/2A receptors [1]; Memantine MCI IC50, pH 7.2 (Fig. 1h data set)) was 71 ± 1.7 µM, the IC50 (GluN1/2A receptors [1]; Memantine MCI IC50, pH 9.0 jump) was 8.77 ± 3.26 µM and the IC50 (GluN1/2A receptors [1]; Memantine MCI IC50 of WT receptors, pH 7.2 (additional data set, Fig. 6h)) was 68.6 ± 4.8 µM. The potency estimated from few doses (GluN1/2A receptors [1]; tsA201, pH 6.3, read-out: Memantine MCI IC50) was 841 ± 5 µM, the “NMDAR inhibition by intracellular drug (in words)” value (NMDAR) was “not to cause NMDAR inhibition” and the “MCI of native NMDARs (in words)” value [6] was “subject to MCI”. The LogP [7] was ~ 3, the Uncharged % ([8]; pH 6.3) was 0.008% and the “[Uncharged] at 100 μM” value ([8]; pH 6.3) was 8 nM. The Uncharged % ([8]; pH 7.2) was 0.063%, the “[Uncharged] at 100 μM” value ([8]; pH 7.2) was 63 nM and the Uncharged % ([8]; pH 9.0) was 3.8%. For the same compound, the “[Uncharged] at 100 μM” value ([8]; pH 9.0) was 3800 nM, the IC50 [9] was 1.65 ± 0.09 µM and the “MCI at depolarized Vm (in words)” value (NMDARs; 100 μM memantine, 35 mV) was “nearly abolished”. For the same compound, the IC50 (GluN1/2A receptors [10]; traditional IC50, pH 7.2, WT, −65 mV) was 1.71 ± 0.06 µM and the IC50 (GluN1/2A receptors [10]; traditional IC50, pH 9.0, WT) was 3.43 ± 0.61 µM.

With `CN1CC[C@@]23CCCC[C@@H]2[C@@H]1Cc1ccc(O)cc13` [dextrorphan] the “Min IMCI/IControl” value (GluN1/2A receptors [1]; 50 μM dextrorphan, pH 7.2) was 0.549 ± 0.043 and the “MCI exhibited (in words)” value (GluN1/2A receptors [1]; pH 7.2) was “displayed MCI”.

For `CNC1(c2ccccc2Cl)CCCCC1=O` (stereo not shown) [ketamine], the “MCI exhibited (in words)” value (NMDARs) is listed as “does not exhibit MCI”.

In the case of `C[C@]12N[C@H](Cc3ccccc31)c1ccccc12` [MK-801], the “Min IMCI/IControl” value (GluN1/2A receptors [1]; 1 μM MK-801, pH 7.2) is reported as 0.459 ± 0.035, the “τM of MCI onset” value (GluN1/2A receptors [1]; 1 μM MK-801, pH 7.2) is reported as 1002 ± 135 ms and the “Min IMCI/IControl” value (GluN1/2A receptors [1]; 10 μM MK-801, pH 7.2) is reported as 0.097 ± 0.029. The “τM of MCI onset” value (GluN1/2A receptors [1]; 10 μM MK-801, pH 7.2) was 311 ± 59 ms, the “MCI exhibited (in words)” value (GluN1/2A receptors [1]; pH 7.2) was “displayed MCI” and the “τM faster at 10 μM than at 1 μM MK-801” value (GluN1/2A receptors [1]; pH 7.2) was ~ 3 fold. The “Min IMCI/IControl” value [11] was 0.612 ± 0.019.

For `CN(C)C12CC3CC(C)(CC(C)(C3)C1)C2.Cl` [DMM, N,N,3,5-tetramethyladamantan-1-amine hydrochloride], the IC50 (cultured neurons) is listed as 28.4 ± 1.4 µM, the “Min IMCI/IControl” value (GluN1/2A receptors [1]; 165 μM DMM, constant pH 9.0) is listed as 0.402 ± 0.037 and the “MCI exhibited (in words)” value (GluN1/2A receptors [1]; [12]) is listed as “strong MCI”. For the same compound, the melting point was 180 °C and the IC50 (GluN1/2A receptors [10]; [13]) was 16.8 ± 1.5 µM.

In the case of `CC12CC3CC(C)(C1)CC([N+](C)(C)C)(C3)C2` [TMM, N,N,N,3,5-pentamethyladamantan-1-ammonium iodide], the “Min IMCI/IControl” value (GluN1/2A receptors [1]; 1 mM TMM, constant pH 9.0) is reported as 0.987 ± 0.039, the “MCI exhibited (in words)” value (GluN1/2A receptors [1]; [12]) is reported as “no MCI” and the IC50 (GluN1/2A receptors [10]; [13]) is reported as 72.3 ± 14.2 µM.

For `CC12CC3CC(C)(C1)CC([N+](C)(C)C)(C3)C2` (as salt: iodide) [TMM, N,N,N,3,5-pentamethyladamantan-1-ammonium iodide], the melting point was > 200 °C (dec.).

For `c1ccc(C2(N3CCCCC3)CCCCC2)cc1` [PCP, phencyclidine], the “Min IMCI/IControl” value (GluN1/2A receptors [1]; 10 μM PCP, pH 7.2) was 0.409 ± 0.063 and the “MCI exhibited (in words)” value (GluN1/2A receptors [1]; pH 7.2) was “displayed MCI”.
